In patent US7355063B2, “Shogaol compound and tyrosinase activity inhibitor comprising the compound” (Toagosei Co., Ltd., priority 2003, dated 2008):

What was measured:
mushroom tyrosinase = experiment: Tyrosinase activity inhibition test using L-dopa as substrate (Test Examples 3 to 6, microplate reader, 490 nm); assay type: biochemical; conditions: Table 6, 0.50 mg/mL
Experimental: Using the compound 37 obtained in Example 21, the compound 38 obtained in Example 22, the compound 39 obtained in Example 23, and arbutin (manufactured by Tokyo Kasei Kogyo Co., Ltd.) as a comparative control, a tyrosinase activity inhibition test was carried out using L-dopa as a substrate.
The specific test procedures are as follows. • (1) 72 μl of a phosphate buffer prepared by dissolving 1.000 g of sodium dihydrogen phosphate and 1.186 g of disodium hydrogen phosphate in 500 ml of distilled water, 80 μl of a substrate solution prepared by dissolving 32.7 mg of L-DOPA in 200 ml of distilled water, and 8 μl of a test solution prepared by dissolving the test compound in dimethyl sulfoxide were mixed together. • (2) 80 μl of an enzyme solution prepared by dissolving 3.0 mg (2400 units; manufactured by Sigma Corporation) of mushroom tyrosinase in 7.0 ml of distilled water and diluting the solution with the above phosphate buffer so as to make it five times in amount was added to the solution prepared in (1), and the whole was stirred for 15 seconds. The resulting solution was maintained at 25° C., and the absorbance at 490 nm was measured by a microplate reader one minute and 45 seconds later and 2 minutes and 45 seconds later. • (3) The test operations in the above (1) and (2) were conducted four times for the individual test compounds and blank test (only dimethyl sulfoxide), and the resulting numeric value was inserted in the following calculation formula and a mean value thereof was regarded as a tyrosinase activity inhibition ratio (%). Tyrosinase activity inhibition ratio (%)=[(T^1−T^2)/T^1]×100 • T^1=difference in absorbance of solution with addition of no test compound between 2 minutes and 45 seconds later and one minute and 45 seconds later • T^2=difference in absorbance of solution with addition of test compound was added between 2 minutes and 45 seconds later and one minute and 45 seconds later
(§1) Using the compound 42 obtained in Example 26, the compound 45 obtained in Example 29, the compound 46 obtained in Example 30, and arbutin (manufactured by Tokyo Kasei Kogyo Co., Ltd.) as a comparative control, a tyrosinase activity inhibition test was carried out using L-dopa as a substrate. The test procedure was in accordance with Test Example 3.
as §1, with “34” for “42”, “18,” for “26,”, “47” for “45”, “31,” for “29, the compound 46 obtained in Example 30,”
Using the compound 48 obtained in Example 32 and arbutin (manufactured by Tokyo Kasei Kogyo Co., Ltd.) as a comparative control, a tyrosinase activity inhibition test was carried out using L-dopa as a substrate. The test procedure was in accordance with Test Example 3.

[1] = Test of scavenging DPPH radical (Test Example 9, microplate reader, 540 nm); conditions: final concentration of 25 μg/mL; 20 minutes, room temperature
Description: Using the compound 36 obtained in Example 20, the compound 37 obtained in Example 21, the compound 38 obtained in Example 22, the compound 39 obtained in Example 23, the compound 40 obtained in Example 24, the compound 42 obtained in Example 26, the compound 45 obtained in Example 29, the compound 46 obtained in Example 30, the compound 48 obtained in Example 32 and, as a comparative control, dl-α-tocopherol (manufactured by Tokyo Kasei Kogyo Co., Ltd.), a test of scavenging DDPH (1,1-diphenyl-2-picrylhydrazyl) radical, a stable radical, was carried out.
100 μl of 800 μM DPPH ethanol solution was added to 80 μl of 100 mM Tris-HCl buffer (pH 7.4) and 20 μl of an ethanol solution of the compound 36 (final concentration of 25 μg/mL), followed by sufficient stirring. After the resulting mixture was allowed to stand in a dark place at room temperature for 20 minutes, the absorbance at 540 nm was measured on a microplate reader (absorbance of the test solution).
The compounds 37, 38, 39, 40, 42, 45, 46, and 48 of the invention as well as dl-α-tocopherol as a known radical scavenger were similarly tested.
As a control, using 80 μl of 100 mM Tris-HCl buffer (pH 7.4), 20 μl of ethanol, and 100 μl of 800 μM DPPH ethanol solution, the same operation was carried out as described above and the absorbance was measured (absorbance of the control solution).
With the individual compounds, the same measurement was repeated four times, and the mean value was inserted in the following formula to calculate a DPPH radical-scavenging ratio. DPPH radical-scavenging ratio (%)=[1−(absorbance of sample solution/absorbance of control solution)]×100

[2] = Test of scavenging DPPH radical (Test Example 8, 517 nm); conditions: final concentration of 10 μg/mL; 20 minutes, room temperature
Experimental: Using the compound 7 obtained in Example 2 as well as dl-α-tocopherol (manufactured by Tokyo Kasei Kogyo Co., Ltd.) and butylhydroxytoluene (BHT) as comparative controls, a test of scavenging DDPH (1,1-diphenyl-2-picrylhydrazyl) radical, a stable radical, was carried out.
1 ml of 200 μM DPPH ethanol solution was added to 800 μl of 100 mM Tris-HCl buffer (pH 7.4) and 200 μl of an ethanol solution of the compound 7 (a final concentration of 10 μg/mL), followed by sufficient stirring. After the resulting mixture was allowed to stand in a dark place at room temperature for 20 minutes, the absorbance at 517 nm was measured (absorbance of the test solution)
The compound 13 of the invention as well as dl-α-tocopherol and butylhydroxytoluene as a known radical scavenger were similarly tested.
As a control, 800 μl of 100 mM Tris-HCl buffer (pH 7.4), 200 μl of ethanol, and 1 ml of 200 μM DPPH ethanol solution were used in the same manner as described above and the absorbance was measured (absorbance of the control solution).
With the individual compounds, the same measurement was repeated three times, and the mean value was inserted in the following formula to calculate a DPPH radical-scavenging ratio (%). DPPH radical-scavenging ratio (%)=[1−(absorbance of sample solution/absorbance of control solution)]×100

[3] = Test of suppressing lipid peroxide formation using linoleic acid
Experimental: Using the compound 7 obtained in Example 2, the compound 38 obtained in Example 22, the compound 40 obtained in Example 24, the compound 42 obtained in Example 26, the compound 46 obtained in Example 30, and as a comparative control, dl-α-tocopherol (manufactured by Tokyo Kasei Kogyo Co., Ltd.), a test of suppressing lipid peroxide formation was carried out using linoleic acid.
(1) After ethanol (2.0 g) was added to linoleic acid (0.2 g, manufactured by Tokyo Kasei Kogyo Co., Ltd.), the compound 7 (0.01 g), and a surfactant Nissan OT-221 (0.4 g, manufactured by NOF Corporation) placed in a 50-ml screw vial and they was dissolved one another, distilled water (17.39 g) was added to the resulting solution and the whole was stirred. Then, the whole was tightly sealed and allowed to stand in a constant-temperature chamber at 40° C. Such sample was prepared in a duplex manner.
The same operation was carried out on the compounds 38, 40, 42, 46, dl-α-tocopherol, and a sample with addition of no test compound (blank).
(2) The amount of remaining linoleic acid after one week, 2 weeks, 3 weeks, and 4 weeks from the start of the test was quantitatively determined by HPLC.
The HPLC analytical conditions were as follows: Wavelength for detection: 210 nm; Mobile phase: a mixed solution of a Mc Ilvaine buffer adjusted to pH 2.6 and methanol (10:90); Flow rate: 1 ml/min; Column: ODS-80Ts (4.6 φmm×150 mm); and Column temperature: 40° C.
(3) Quantitative determination by HPLC was carried out on each sample one time. The ratio of remaining linoleic acid was calculated on the basis of the mean value of values obtained in two-times measurement.

Row | Tyrosinase activity inhibition ratio (%) (mushroom tyrosinase; 0.25 mg/mL) | Tyrosinase activity inhibition ratio (%) (mushroom tyrosinase; 0.5 mg/mL) | Ratio of remaining linoleic acid (%) ([3]; After 1 week at 40° C.) | Ratio of remaining linoleic acid (%) ([3]; After 2 weeks at 40° C.) | Ratio of remaining linoleic acid (%) ([3]; After 3 weeks at 40° C.) | Ratio of remaining linoleic acid (%) ([3]; After 4 weeks at 40° C.) | SMILES | DPPH radical-scavenging ratio (%) [1] | DPPH radical-scavenging ratio (%) [2]
1 | 38.2% | 47.1% |  |  |  |  | COc1cc(CCC(O)CC(CCCCCCO)OC)ccc1O (stereo not drawn) [Compound 48] | 33.5% | 
2 |  |  | 88.7% | 81.3% | 69.7% | 50.0% | Cc1c(C)c2c(c(C)c1O)CCC(C)(CCCC(C)CCCC(C)CCCC(C)C)O2 (racemic) [Tocopherol, dl-α-tocopherol] | 14.9% | 28.4%
